Experimental findings from patent publication US20060204481A1, “Methods of promoting cell viability” (priority 2003, published 2006) are described below.

In the experiment the test system is TH-positive neurons and total cells in ventral mesencephalic (VM) tissue cultures. Put plainly: Dopamine neuron survival in serum-free ventral mesencephalic tissue cultures (TH-positive and total cell counts). Type of experiment: cell-based, rat. The method, then:
In order to examine the effects of TUDCA on apoptosis and the survival of dopamine neurons in VM tissue cultures under serum-free conditions and to determine an appropriate dosage of TUDCA, primary neuronal cultures were prepared from the VM tissue of SD rat embryos and incubated with or without the addition of TUDCA (Calbiochem, La Jolla, Calif., free base, dissolved in 0.15M (where “M” is molar concentration) NaHCO3 buffer). […] Therefore, TUDCA was added to a final concentration of 50 μM to the culture medium when the culture medium was switched to serum-free conditions after two days in vitro. Neural survival and apoptosis were determined by counting TH-positive cells and TUNEL-positive cells in the cultures two or seven days in vitro. A total of three separate series of cell culture experiments were performed.
For each experimental series, pooled VM tissue from 24-32 embryos was incubated in 0.1% trypsin (Sigma, St. Louis, Mo.)/0.05% DNase (Sigma, St. Louis Mo.) at 37 degrees Celsius (° C.) for 20 minutes (min), and mechanically dissociated using a 1 milliliter (ml) Gilson pipette. Following dissociation, the cells were centrifuged at 600 rotation per minute (rpm) for 5 min and the pellet was resuspended in Dulbecco's Modified Eagle's Medium (DMEM) (Gibco, Carlsbad, Calif.). The cell number and viabilities of dissociated cells were assessed with a hemocytometer using trypan blue dye exclusion. The number of 100,000 cells/cm^2 (178,000 cells per well) were plated on to four-well chamber slides (Nunc, Rochester, N.Y.) precoated with […] poly-d-lysine (Sigma, St. Louis Mo.). The viabilities of dissociated cells were over 95%. Cell cultures were incubated for 2 days in DMEM supplemented with 10% fetal calf serum at 37° C. in a 95% air/5% CO^2 humidified atmosphere. After 2 days in vitro, the culture medium was switched to serum-free N2 medium, consisting of DMEM/Ham's F 12(1:1) mixture (Gibco, Carlsbad, Calif.).
At this time point, some cultures were supplemented with TUDCA. […]

For the molecule `C[C@H](CCC(=O)NCCS(=O)(=O)O)[C@H]1CC[C@H]2[C@@H]3[C@@H](O)C[C@@H]4C[C@H](O)CC[C@]4(C)[C@H]3CC[C@]12C` [TUDCA, tauroursodeoxycholic acid], the “number of TH-positive cells, TUDCA-treated cultures compared with 2DIV cultures” value (50 μM TUDCA added at switch to serum-free medium after 2 days in vitro, counted at 7 DIV, p>0.05) is given as “No difference”. Also, under “7DIV TUDCA-treated cultures, serum-free, 7 DIV control had only 30% of 2 DIV TH-positive neurons”, the “cell loss of TH-positive neurons and total cells” value is “not observed”. Moreover, where the note is “VM tissue cultures, serum-free”, the “dose dependence of neural protective effect” value was “dose-dependent manner”.
